Test results from patent US8889068B2, “Method for controlling microbial contamination, mineral suspensions obtained and uses thereof” (Omya International AG, priority 2005, dated 2014).

Test system: bacteria/yeasts cocktail indicated in table 28
Experiment: Disinfection test on simulated wagon washing water with Ca(OH)2
Type: cell-based
Protocol: In order to simulate wagon washing water, a buffered kitchen salt solution was used, comprising 3% by weight of a suspension of calcium carbonate, taken from example 1.
The Ca(OH)2 was dissolved in a buffered solution of sterile phosphate at 0.85% by weight (PBS) and was mixed after 24 hours' storage at 30° C. with the bacteria/yeasts cocktail indicated in table 28.
The samples were incubated once more for 24 hours at 30° C. and then removed from the plates.
The germs which had grown were examined under an optical microscope.
A cocktail of bacteria (in PBS), firstly, and a bacteria/yeasts cocktail in (PBS), secondly, were mixed with Ca(OH)2, stored, and then removed from their moulds.
Tables 29 and 30 indicate the OH^− ion concentration (mole/l) and the yeast germ concentration (number/ml) measured in the samples, after 24-hours' incubation, for different initial concentrations of Ca(OH)2.
Samples 9 and 10 of initial Ca(OH)2 concentration equal to 1000 ppm were then removed from their mould at 30° C. on to a bacterial medium called a PCA (Plate Count Agar).
After 48 hours' incubation, the samples are once again removed from their moulds on to the same medium of type PCA.
For a part of sample 9, named 9-2, the OH^− ion concentration was reduced to a value of 5×10^−7 mole/l by the addition of gaseous CO2. […]

[Ca+2].[OH-].[OH-] [Ca(OH)2]
microbial germs (curative mode, initial Ca(OH)2 1000 ppm, after 24 hours): less than 10 number/ml
microbial germs concentration (protective mode, initial Ca(OH)2 200 ppm, after 24 hours' incubation at 30° C.): 1000 number/ml
